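Assay format: 96-well plates, 48-hour exposure. At the GI50, growth is halved. Definition used: TGI = concentration required for complete inhibition of growth.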
Tests used:
Assay in all cases: NCI-60 cell line screen, 48 h
[1] = system: RXF 393 renal
[2] = system: HS 578T breast
[3] = system: HOP-62 NSCLC
[4] = system: MALME-3M melanoma
[5] = system: HL-60(TB) leukemia
[6] = system: SK-MEL-28 melanoma
[7] = system: KM12 colon
[8] = system: MDA-MB-231 breast
[9] = system: NCI-H522 lung
[10] = system: SN12C renal

SMILES	GI50 [1] [µM]	TGI [1] [µM]	GI50 [2] [µM]	TGI [2] [µM]	GI50 [3] [µM]	TGI [3] [µM]	GI50 [4] [µM]	TGI [4] [µM]	GI50 [5] [µM]	TGI [5] [µM]	GI50 [6] [µM]	TGI [6] [µM]	GI50 [7] [µM]	TGI [7] [µM]	GI50 [8] [µM]	TGI [8] [µM]	GI50 [9] [µM]	TGI [9] [µM]	GI50 [10] [µM]	TGI [10] [µM]
O=C1C(=O)c2ccccc2C(O)=C1CC=C(Br)Br	14.3	80.7	10.6	56	9.01	> 100	18.2	60.4	5.37	30.4	12.8	> 100	3.14	64.9	8.98	27	5.28	29.9	5.7	77.9
O=C(Nc1cc(Cl)cc(Cl)c1)c1ccc(NC2=C(Cl)C(=O)N(Cc3ccc(Cl)cc3Cl)C2=O)cc1	29.6	> 100	8.12	54.7	34.1	> 100					21.4	75.8	13.6	47.7	19.6	41.8	15.7	34.3	24.9	60.6
O=C(CO)CC(=O)C(=O)Nc1ccccc1		> 100				> 100		> 100		> 100		> 100		> 100						> 100
CC(C)c1ccc(C2C3=C(N=C4SCC(=O)N42)C(=O)c2ccccc23)cc1 (centres undefined)						> 100		> 100		> 100		> 100		> 100				98.7		> 100
COC(=O)C(=O)OC1(C(C)=O)CC2(c3ccccc3)OC1(c1ccccc1)c1ccccc12 (centres undefined)		29				32.8		35.2		> 100								34.7		28.6
Cc1ccc(-n2c3c(c4c(CN(C)C)c(O)ccc42)CCc2ccccc2C3=O)cc1	13.6	28	21.3	57.7	17.8	40.9			9.49	24.5			19.3	40	14.9	31	14.9	32.7	16.3	30.9
C#CCC(Cc1cnc2nc(N)nc(N)c2n1)c1ccc(C(=O)N[C@@H](CCC(=O)O)C(=O)O)cc1 (some centres undefined)	< 0.01	> 100	> 100	> 100	< 0.01	> 100	> 44	> 100	< 0.01	> 100	0.0901	> 100	< 0.01	> 100			< 0.01	> 100	< 0.01	> 100
O=C1NC(=O)C2C(=O)NC(=O)C1C2(c1ccccc1)c1cc[nH]c1 (centres undefined)		> 100				> 100		> 100		> 100		> 100		> 100				> 100		> 100
N#Cc1c(NN)nc(NN)c(C#N)c1-c1ccccc1		> 100				> 100		> 100		> 100		> 100		> 100						> 100
Cc1cc2nc(CCC(=O)O)c(=O)[nH]c2cc1C		> 100				> 100		> 100		> 100		> 100		> 100				> 100		> 100
CCOc1ccccc1NC(=O)CC1SC(=Nc2ccc([N+](=O)[O-])cc2)NC1=O (centres undefined)		39.7				34.3		51.1		> 100		70		37						53.9
c1ccc2[nH]c(-c3ccc(NN=Nc4ccncc4)cc3)nc2c1	58.1	> 100	> 100	> 100	> 100	> 100			> 100	> 100	16.6	51.6	23	> 100	> 100	> 100	77.6	> 100	> 100	> 100
CC(=O)[CH-]C(=O)c1ccccc1.CC(=O)[CH-]C(=O)c1ccccc1.CC(C)CCCC(C)[C@H]1CCC2[C@@H]3CC=C4C[C@@H]([O-])CC[C@]4(C)C3CC[C@@]21C.CC[O-].[Ti+4] (some centres undefined)					43.2	> 100	29.4	75.6	42.3	> 100	30.3	> 100	39.6	> 100			26.3	71.2	94.5	> 100
COc1c(OC)c(OC)c2c(c1OC)c(=O)c1ccccc1n2C				> 100		> 100				> 100		> 100		> 100		> 100		> 100		> 100
Oc1cc(O)c2c(-c3c(O)c(-c4ccc(O)c(O)c4)[o+]c4cc(O)cc(O)c34)c(O)c(-c3ccc(O)c(O)c3)[o+]c2c1		81.1				97.8		84.6				> 100		> 100						> 100
CCCCCC/C=C1\CCC(CN2CCCC2)C1=O (centres undefined)		33.5				34.2		34.6				33.8		13.3				3.29		27
CC1(CO)OC(n2cc(C(=O)NC(=O)OCc3ccccc3)c(=O)[nH]c2=O)CC1O (centres undefined)						> 100		> 100		> 100		> 100		> 100				> 100		> 100
CCc1c(C#N)c(S[C@@H](C(N)=O)c2ccccc2)nc(N(C)C)c1C#N	4.51	51.9			3.63	17.7							> 100	> 100	10.8	> 100			6.81	> 100
CC1(c2cccc3ccccc23)OC(=O)c2ccccc21 (centres undefined)		46.1				41.6		53.4		43.4		75.8		> 100				61.4		67.8
O=C(CC1(O)C(=O)Nc2c(Cl)ccc(Cl)c21)c1ccc2ccccc2c1 (centres undefined)		27				99.2		25.1		4.04		32.6		17.8				9.24		31.3

SMILES	GI50 [1] [µM]	TGI [1] [µM]	GI50 [2] [µM]	TGI [2] [µM]	GI50 [3] [µM]	TGI [3] [µM]	GI50 [4] [µM]	TGI [4] [µM]	GI50 [5] [µM]	TGI [5] [µM]	GI50 [6] [µM]	TGI [6] [µM]	GI50 [7] [µM]	TGI [7] [µM]	GI50 [8] [µM]	TGI [8] [µM]	GI50 [9] [µM]	TGI [9] [µM]	GI50 [10] [µM]	TGI [10] [µM]
CCC/C(=N/N=C(N)N)c1ccc(NC(=O)c2cc3cc(OC)ccc3[nH]2)cc1	10.6	30.8	14	48.4	10.1	30.2					10.5	40.2	2.28	4.78	11.5	29.4	12.7	33.9	14.1	33.7
N#CC(C(=O)/C(=N/N)C(C#N)c1ccccc1)c1ccccc1 (centres undefined)		> 100				> 100		> 100		> 100		> 100		> 100				> 100		> 100
CC(=O)OC[C@]1(O)CC[C@@]23CC1C[C@@H]2CCC1C(C)(C)CCC[C@@]13C (some centres undefined)		22.9				32.2		29.5		20.4		28.1		26.1				14.7		24.7
O=C1c2cc3c(cc2-c2c1c1ccc(Cl)cc1c(=O)n2CCCNCCO)OCO3	0.926	2.59	1.73	4	0.0714	1.73			0.0367	1.08	1.43	3.26	1.17	2.61	1.73	3.49	0.0372	1.58	1.08	2.81
O=C1C(Cl)=C(Nc2cccc(Cl)c2)C(=O)N1Cc1ccccc1Cl	1.26	6.53	9.4	56.4	15.8	37.9			3.15	19.6	9.95	34.2	10.7	49.6	2.4	15.1	2.87	23.3	2.32	8
O=c1cc2ccccc2nn1Cc1cccc(Cl)c1						> 100		> 100				> 100		> 100						> 100
Oc1ccccc1C=NCc1ccco1		> 100				> 100		> 100		> 100		> 100		> 100						> 100
O=NNc1ccc(S(=O)(=O)c2ccccc2)cn1				> 100		> 100		> 100				> 100		> 100		> 100		> 100		> 100
CCC/C(=N/NC(=O)C(N)=O)C(CC)C(=O)CCC(=O)N(Cc1ccccc1)Cc1ccccc1 (centres undefined)		> 100				> 100		> 100		> 100		> 100		> 100				> 100		> 100
COc1cc(/C=C(\C#N)C(=O)c2ccccc2)ccc1O						> 100		> 100		> 100		> 100		> 100				> 100		> 100
N#CC(C(=O)CCC(=O)C(C#N)c1ccccc1)c1ccccc1 (centres undefined)		> 100				> 100		> 100		> 100		> 100		> 100				> 100		> 100
CC(=O)[CH-]C(=O)c1ccccc1.CC(=O)[CH-]C(=O)c1ccccc1.CC1(C)C2CCC1(C)C([O-])C2.CC1(C)C2CCC1(C)C([O-])C2.[Ti+4]	17.6	36.1			25.7	81.8	12.4	30.2	23.8	> 100	34.1	> 100	34.8	> 100					27.9	> 100
CCCCCCCCCCCCCC(=O)CC(=O)c1c(O)cccc1O		> 100				> 100		92		41.7		> 100		> 100				59.1		> 100
N#C/C(=C/c1ccc[nH]1)P(=O)(O)O		> 100				> 100		> 100		> 100		> 100		> 100				> 100		> 100
CC(=O)[CH-]C(=O)c1ccccc1.CC(=O)[CH-]C(=O)c1ccccc1.[Eu+3].[OH-].[OH3+]	> 100	> 100			> 100	> 100			> 100	> 100	> 100	> 100							> 100	> 100
CCn1c(CN2CCN(Cc3ccccc3)CC2)nc2cc(NC(=O)c3cccs3)ccc21	12.5	33.1	16.9	48.8	17.7	38	18.6	37.3	20.5	60.9	16	34.3	14.8	32	16.9	> 100			23.5	> 100
COc1ccc(/C=C/C(=O)c2ccc(SC)cc2)cc1OC	12.7	29.4	16.6	99.3	18.8	42.2			25.7	79.6	18.2	39.8	3.9	22.6	9.05	33.7	5	27.4	13	26.5
Cc1ccccc1N=Nc1ccc(NC(=O)c2ccnn2C)c(C)c1	18.5	47.2	22.1	> 100	29.4	> 100	14.5	> 100			> 100	> 100	> 100	> 100	20.2	78.2	30	> 100	97.1	> 100
Clc1cc(Cc2cc(Cl)c(Cl)c3c2OCOC3)c2c(c1Cl)COCO2		70.3				63		> 100		> 100		> 100		> 100				> 100		> 100
